Reference: BindingDB's records for patent US20250313563 (The Broad Institute, 2025)
pIC50: −log10 of the molar value. “And” between values parts separate entries of the source, which are not always exact repeats. Identical values can stand only once.

Tests used:
[1] = biological target: Glycogen synthase kinase-3 alpha (Homo sapiens, UniProt P49840); experiment: TR-FRET Assay
How it was run: (§1)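 30 min preinc w/ cpd in assay buffer → kinase rxn → EDTA quench → add detection mix (40 nM SA-d2, 2 nM Tb-pSer641 Ab) → TR-FRET read.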

[2] = biological target: Glycogen synthase kinase-3 beta (Homo sapiens, UniProt P49841); experiment: TR-FRET Assay
Glycogen synthase kinase-3 beta, sequence (P49841 whole entry): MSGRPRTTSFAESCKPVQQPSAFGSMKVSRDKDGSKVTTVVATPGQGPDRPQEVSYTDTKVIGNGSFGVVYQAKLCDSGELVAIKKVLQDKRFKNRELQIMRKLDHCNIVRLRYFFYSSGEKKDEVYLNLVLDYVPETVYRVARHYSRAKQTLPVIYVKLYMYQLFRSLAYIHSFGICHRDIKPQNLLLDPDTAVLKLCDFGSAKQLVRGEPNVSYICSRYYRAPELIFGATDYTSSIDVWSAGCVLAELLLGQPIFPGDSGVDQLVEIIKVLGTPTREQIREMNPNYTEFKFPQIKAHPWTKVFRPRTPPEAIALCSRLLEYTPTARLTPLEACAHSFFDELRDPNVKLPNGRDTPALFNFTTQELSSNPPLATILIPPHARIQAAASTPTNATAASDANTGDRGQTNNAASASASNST
How it was run: as §1

Glycogen synthase kinase-3 alpha, sequence (P49840 whole entry): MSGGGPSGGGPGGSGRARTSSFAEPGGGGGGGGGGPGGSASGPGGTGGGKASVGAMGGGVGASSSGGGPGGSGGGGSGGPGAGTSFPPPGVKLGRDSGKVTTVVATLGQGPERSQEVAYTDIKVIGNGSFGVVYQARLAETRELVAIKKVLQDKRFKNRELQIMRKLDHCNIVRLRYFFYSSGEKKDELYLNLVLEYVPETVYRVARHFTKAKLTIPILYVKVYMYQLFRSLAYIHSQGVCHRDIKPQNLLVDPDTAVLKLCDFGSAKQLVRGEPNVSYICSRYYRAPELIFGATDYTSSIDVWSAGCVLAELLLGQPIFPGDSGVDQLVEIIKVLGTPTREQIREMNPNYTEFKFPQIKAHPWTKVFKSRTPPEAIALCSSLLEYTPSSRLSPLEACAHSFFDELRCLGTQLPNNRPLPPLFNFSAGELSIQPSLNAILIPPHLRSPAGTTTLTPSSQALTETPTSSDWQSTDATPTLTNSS

Row | Compound | pIC50 [1] | pIC50 [2]
1 | CC[C@]1(c2ccccc2)C2=CN=NC2NC2=C1C(=O)CC(C)(C)[C@@H]2F (some centres not stated) [US20250313563, Compound 957196] | < 5.30 | < 5.30
2 | CCC1(c2cccc(-c3cnnn3C(C)C)c2)C2=CN=NC2NC2=C1C(=O)CC(C)(C)C2 (configuration not stated) [US20250313563, Compound 947397] | > 7.00 | > 7.00
3 | CC[C@]1(c2cccc(C)c2)C2=CN=NC2NC2=C1C(=O)CC1(CCCC1)C2 (some centres not stated) [US20250313563, Compound 801313] | < 5.78 | < 5.30
4 | CC[C@@]1(c2cccc(-c3ccnc(C)c3)c2)C2=CN=NC2NC2=C1C(=O)C[C@@]1(CCOC1)C2 (some centres not stated) [US20250313563, Compound 947411] | < 5.30 | < 5.30
5 | CC1(C)CC(=O)C2=C(C1)NC1=C(CN=N1)[C@]21CCOC1 [US20250313563, Compound 877313] | 6.00 to 7.00 | 6.00 to 7.00
6 | CC[C@]1(c2cccc(-c3cnn4c3CC(C)(C)CC4)c2)C2=CN=NC2NC2=C1C(=O)NC(C)(C)C2 (some centres not stated) [US20250313563, Compound 949265] | 5.30 to 6.00 | < 5.30
7 | CC[C@@]1(c2cccc(-c3ccnc(C)c3)c2)C2=CN=NC2NC2=C1C(=O)NC(C)(C)C2 (some centres not stated) [US20250313563, Compound 927326] | 6.00 to 7.00 | < 5.30
8 | CC1(C)CC(=O)C2=C(C1)NC1=C(CN=N1)C21CCN(S(=O)(=O)c2cccc3c2CCCC3)CC1 [US20250313563, Compound 947470] | > 7.00 | > 7.00
9 | CC[C@]1(c2cccc(C(F)(F)F)c2)C2=CN=NC2NC2=C1C(=O)N(c1ccccn1)CC2 (some centres not stated) [US20250313563, Compound 949310] | 6.00 to 7.00 | 6.00 to 7.00
10 | CC[C@@]1(c2cccc([C@@H]3CCOC(C)(C)C3)c2)C2=CN=NC2NC2=C1C(=O)CC(C)(C)C2 (some centres not stated) [US20250313563, Compound 912091] | < 5.30 | < 5.30
11 | CCC1(c2cccc(-c3cnn(C)c3)c2)C2=C(CC(C)(C)NC2=O)NC2N=NC(C)=C21 (configuration not stated) [US20250313563, Compound 944027] | > 7.00 | 6.00 to 7.00
12 | CC1(C)CC(=O)C2=C(C1)NC1=C(CN=N1)C21COC2(CN(C(=O)c3ccc(F)cc3)C2)C1 (configuration not stated) [US20250313563, Compound 947292] | > 7.00 | > 7.00
13 | CC1(C)CC(=O)C2=C(C1)NC1=C(CN=N1)[C@]21COC2(CN(S(C)(=O)=O)C2)C1 [US20250313563, Compound 926823] | 6.00 to 7.00 | 5.30 to 6.00
14 | CC1(C)CC(=O)C2=C(C1)NC1=C(CN=N1)C21COC2(CN(C(=O)C(C)(C)C)C2)C1 (configuration not stated) [US20250313563, Compound 947303] | > 7.00 | > 7.00
15 | Cc1ccc(S(=O)(=O)N2CCC3(CC2)C2=C(N=NC2)NC2=C3C(=O)CC(C)(C)C2)cn1 [US20250313563, Compound 947482] | > 7.00 | > 7.00
16 | Cn1cc([C@H]2CC[C@@]3(CC2)C2=C(N=NC2)NC2=C3C(=O)CC(C)(C)C2)cn1 [US20250313563, Compound 949323] | 5.30 to 6.00 | < 5.30
17 | CC1(C)CC(=O)C2=C(C1)NC1=C(CN=N1)C21COC2(CN(C(=O)C3CCC3)C2)C1 (configuration not stated) [US20250313563, Compound 947288] | > 7.00 and 6.00 to 7.00 | > 7.00 and 6.00 to 7.00
18 | CC1(C)CC(=O)C2=C(C1)NC1=C(CN=N1)C21CCN(S(=O)(=O)c2cccc(C#N)c2)CC1 [US20250313563, Compound 947254] | > 7.00 | > 7.00 and 6.00 to 7.00
19 | CC[C@]1(c2cccc(Br)c2)C2=C(CC(C)(C)CC2=O)NC2N=NC(C(F)(F)F)=C21 (some centres not stated) [US20250313563, Compound 810366] | > 7.00 | > 7.00 and 6.00 to 7.00
20 | Cc1ccc(S(=O)(=O)N2CCC3(CC2)C2=C(N=NC2)NC2=C3C(=O)CC(C)(C)C2)cc1 [US20250313563, Compound 947459] | > 7.00 | 6.00 to 7.00
21 | CC[C@@]1(c2cccc(-c3c(C)cnc4c(C)cccc34)c2)C2=CN=NC2NC2=C1C(=O)NC(C)(C)C2 (some centres not stated) [US20250313563, Compound 952760] | < 5.30 | < 5.30
22 | CC[C@]1(c2cccc(-c3ccnc(C)c3)c2)C2=CN=NC2NC2=C1C(=O)N[C@@H](C)C2 (some centres not stated) [US20250313563, Compound 926299] | 5.30 to 6.00 | < 5.30
23 | CC(C)(C)CC1N=NC2=C1[C@](C)(c1cc(S(C)(=O)=O)ccc1F)C1=C(CC(C)(C)CC1=O)N2 (some centres not stated) [US20250313563, Compound 125976] | 5.30 to 6.00 | 6.00 to 7.00

Row | Compound | pIC50 [1] | pIC50 [2]
24 | CC[C@]1(c2cccc(N(C)c3ncccn3)c2)C2=CN=NC2NC2=C1C(=O)NC(C)(C)C2 (some centres not stated) [US20250313563, Compound 943964] | > 7.00 and 6.00 to 7.00 | > 7.00 and 5.30 to 6.00
25 | Cc1cc(-c2cccc3c2CCC[C@]32C3=CN=NC3NC3=C2C(=O)CC(C)(C)C3)ccn1 (some centres not stated) [US20250313563, Compound 945550] | 6.00 to 7.00 | < 5.30
26 | CC[C@@]1(c2cccc(-c3ccnc4cc(F)cnc34)c2)C2=CN=NC2NC2=C1C(=O)NC(C)(C)C2 (some centres not stated) [US20250313563, Compound 952758] | > 7.00 | 6.00 to 7.00
27 | CC[C@]1(c2cccc(-c3cc(C)nn3C)c2)C2=C(CC(C)(C)CC2=O)NC2N=NC(C(F)(F)F)=C21 (some centres not stated) [US20250313563, Compound 947383] | 5.30 to 6.00 | < 5.30
28 | CC[C@@]1(c2cccc(-c3ccnc(C)c3OC)c2)C2=CN=NC2NC2=C1C(=O)CC(C)(C)C2 (some centres not stated) [US20250313563, Compound 945997] | > 7.00 and 6.00 to 7.00 | > 7.00 and 5.30 to 6.00
29 | CC[C@@]1(c2cccc(-c3cnn4c3CCCC4)c2)C2=C(CC(C)(C)NC2=O)NC2N=NC(C)=C21 (some centres not stated) [US20250313563, Compound 947817] | > 7.00 | > 7.00
30 | CC[C@@]1(c2cccc(-c3ccnc(C)c3)c2)C2=C(CC(C)(C)CC2=O)NC2N=NC(C(F)(F)F)=C21 (some centres not stated) [US20250313563, Compound 917289] | 6.00 to 7.00 | 5.30 to 6.00
31 | CC[C@]1(c2cccc(-c3cnnn3C)c2)C2=CN=NC2NC2=C1C(=O)CC(C)(C)C2 (some centres not stated) [US20250313563, Compound 947824] | 6.00 to 7.00 | 5.30 to 6.00
32 | CCC1(c2cccc(-c3ncnn3C)c2)C2=CN=NC2NC2=C1C(=O)CC(C)(C)C2 (configuration not stated) [US20250313563, Compound 943532] | > 7.00 | 6.00 to 7.00
33 | CC1(C)CC(=O)C2=C(C1)NC1=C(CN=N1)C21CC2(CCCC2)C1 [US20250313563, Compound 874477] | > 7.00 and 6.00 to 7.00 | > 7.00 and 5.30 to 6.00
34 | CC[C@]1(c2cccc(-c3ccnn3C)c2)C2=C(CC(C)(C)CC2=O)NC2N=NC(C(F)(F)F)=C21 (some centres not stated) [US20250313563, Compound 947365] | 6.00 to 7.00 | 5.30 to 6.00
35 | CCC1(c2cccc(-c3ccnc(C)c3)c2)C2=CN=NC2NC2=C1C(=O)CC(C)(C)C2 (configuration not stated) [US20250313563, Compound 840857] | > 7.00 | 6.00 to 7.00
36 | CCC1(c2cccc(-c3cnn(C)c3C)c2)C2=C(CC(C)(C)NC2=O)NC2N=NC(C)=C21 (configuration not stated) [US20250313563, Compound 944028] | > 7.00 | 6.00 to 7.00
37 | CC[C@@]1(c2cccc(NS(C)(=O)=O)c2)C2=CN=NC2NC2=C1C(=O)CC(C)(C)C2 (some centres not stated) [US20250313563, Compound 927348] | > 7.00 | > 7.00
38 | CC[C@@]1(c2cccc(-c3ccnc4ccc(Cl)cc34)c2)C2=CN=NC2NC2=C1C(=O)N(C)C(C)(C)C2 (some centres not stated) [US20250313563, Compound 948517] | > 7.00 | > 7.00
39 | O=C1C[C@]2(CCOC2)CC2=C1C1(CCOCC1)C1=C(N=NC1)N2 [US20250313563, Compound 901476] | 6.00 to 7.00 | 6.00 to 7.00
40 | CC[C@@]1(c2cccc(-c3ccnc(C)c3)c2)C2=C(N=NC2)NC2=C1C[C@@H]1CC[C@H]2C1 [US20250313563, Compound 943920] | 5.30 to 6.00 | < 5.30
41 | CC1(C)CC(=O)C2=C(C1)NC1=C(CN=N1)C21COC2(CN(S(=O)(=O)c3ccccc3)C2)C1 (configuration not stated) [US20250313563, Compound 913002] | 6.00 to 7.00 | 5.30 to 6.00
42 | CC[C@]1(c2cccc(-c3ccnc(C)c3)c2)C2=CN=NC2NC2=C1C(=O)[C@@H]1CC[C@H]2C1 (some centres not stated) [US20250313563, Compound 943921] | 5.30 to 6.00 | < 5.30
43 | CC[C@]1(c2cccc(C3=CN=NC3)c2)C2=C(CC(C)(C)CC2=O)NC2N=NC(C)=C21 (some centres not stated) [US20250313563, Compound 913044] | 6.00 to 7.00 | 6.00 to 7.00
44 | Cn1nccc1CN1CC2(C1)C1=C(N=NC1)NC1=C2C(=O)CC(C)(C)C1 [US20250313563, Compound 932653] | 5.30 to 6.00 | < 5.30
45 | CCC1(c2cccc(COC)c2)C2=CN=NC2NC2=C1C(=O)CC(C)(C)C2 (configuration not stated) [US20250313563, Compound 801323] | > 7.00 | 6.00 to 7.00
46 | CC1(C)CC(=O)C2=C(C1)NC1=C(CN=N1)[C@]21CCN(S(=O)(=O)CC2CC2)C1 [US20250313563, Compound 943481] | > 7.00 and 6.00 to 7.00 | > 7.00 and 6.00 to 7.00
